Assay results taken from ChEMBL document CHEMBL1135137, “Synthesis and pharmacological characterization of a potent, orally active p38 kinase inhibitor” (Bioorg Med Chem Lett, 2002).
Converted amounts (≈) assume the structure as drawn. One block for each molecule: values may come before it.

Key:
[1] = target: Tyrosine-protein kinase ABL (Homo sapiens) (UniProt P00519+P42684); assay: Inhibition of Abl tyrosine kinase at 5 uM; type: protein assay
Mus musculus [2] = assay: Percentage inhibition of LPS-induced TNF-alpha production in mice at 50 mg/kg peroral dose; type: functional; conditions: route oral
Mus musculus [3] = assay: Effect on LPS-induced TNF-alpha production in mice at 50 mg/kg peroral dose; type: functional; conditions: route oral
[4] = target: Mitogen-activated protein kinase 11 (Homo sapiens, UniProt Q15759); assay: Inhibition of Mitogen-activated protein kinase p38 beta
Chain of Mitogen-activated protein kinase 11 (Q15759 whole entry): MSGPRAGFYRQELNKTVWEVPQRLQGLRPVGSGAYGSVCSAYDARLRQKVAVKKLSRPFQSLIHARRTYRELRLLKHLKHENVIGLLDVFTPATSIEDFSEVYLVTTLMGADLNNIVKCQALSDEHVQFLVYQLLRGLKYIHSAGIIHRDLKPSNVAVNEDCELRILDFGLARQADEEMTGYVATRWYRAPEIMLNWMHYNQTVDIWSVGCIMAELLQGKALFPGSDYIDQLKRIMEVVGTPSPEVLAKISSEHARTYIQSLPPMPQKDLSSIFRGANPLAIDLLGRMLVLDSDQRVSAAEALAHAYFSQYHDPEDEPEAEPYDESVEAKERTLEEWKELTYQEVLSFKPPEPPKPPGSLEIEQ

[5] = target: Tyrosine-protein kinase Fyn (Homo sapiens) (UniProt P06241); assay: Inhibition of p59 Fyn tyrosine kinase at 10 uM
Mus musculus [6] = assay: Effect in murine model of arthritis onset in mice immunized with bovine type II collagen at 30 mg/kg; Histopathology in inflammatory cell; type: functional
Mus musculus [7] = assay: Effect on LPS-induced TNF-alpha production in mice at 20 mg/kg peroral dose; type: functional; conditions: route oral
Mus musculus [8] = assay: Percentage inhibition of LPS-induced TNF-alpha production in mice at 10 mg/kg peroral dose; type: functional; conditions: route oral
Mus musculus [9] = assay: Effect in murine model of arthritis onset in mice immunized with bovine type II collagen at 3 mg/kg; Histopathology in inflammatory cell; type: functional
SW1353 = assay: TNF-alpha-induced IL-6 production in SW1353 cells; type: functional, cell-based; conditions: Homo sapiens
Mus musculus [10] = assay: Effect on LPS-induced TNF-alpha production in mice at 10 mg/kg peroral dose; type: functional; conditions: route oral
Mus musculus [11] = assay: Effect in murine model of arthritis onset in mice immunized with bovine type II collagen at 10 mg/kg; Histopathology in inflammatory cell; type: functional
Mus musculus [12] = assay: Effect in murine model of arthritis onset in mice immunized with bovine type II collagen at 3 mg/kg; Number of paws affected; type: functional
[13] = target: Receptor tyrosine-protein kinase erbB-2 (Homo sapiens, UniProt P04626); assay: Inhibition of human epidermal growth factor receptor-2
Chain of Receptor tyrosine-protein kinase erbB-2 (P04626 whole entry): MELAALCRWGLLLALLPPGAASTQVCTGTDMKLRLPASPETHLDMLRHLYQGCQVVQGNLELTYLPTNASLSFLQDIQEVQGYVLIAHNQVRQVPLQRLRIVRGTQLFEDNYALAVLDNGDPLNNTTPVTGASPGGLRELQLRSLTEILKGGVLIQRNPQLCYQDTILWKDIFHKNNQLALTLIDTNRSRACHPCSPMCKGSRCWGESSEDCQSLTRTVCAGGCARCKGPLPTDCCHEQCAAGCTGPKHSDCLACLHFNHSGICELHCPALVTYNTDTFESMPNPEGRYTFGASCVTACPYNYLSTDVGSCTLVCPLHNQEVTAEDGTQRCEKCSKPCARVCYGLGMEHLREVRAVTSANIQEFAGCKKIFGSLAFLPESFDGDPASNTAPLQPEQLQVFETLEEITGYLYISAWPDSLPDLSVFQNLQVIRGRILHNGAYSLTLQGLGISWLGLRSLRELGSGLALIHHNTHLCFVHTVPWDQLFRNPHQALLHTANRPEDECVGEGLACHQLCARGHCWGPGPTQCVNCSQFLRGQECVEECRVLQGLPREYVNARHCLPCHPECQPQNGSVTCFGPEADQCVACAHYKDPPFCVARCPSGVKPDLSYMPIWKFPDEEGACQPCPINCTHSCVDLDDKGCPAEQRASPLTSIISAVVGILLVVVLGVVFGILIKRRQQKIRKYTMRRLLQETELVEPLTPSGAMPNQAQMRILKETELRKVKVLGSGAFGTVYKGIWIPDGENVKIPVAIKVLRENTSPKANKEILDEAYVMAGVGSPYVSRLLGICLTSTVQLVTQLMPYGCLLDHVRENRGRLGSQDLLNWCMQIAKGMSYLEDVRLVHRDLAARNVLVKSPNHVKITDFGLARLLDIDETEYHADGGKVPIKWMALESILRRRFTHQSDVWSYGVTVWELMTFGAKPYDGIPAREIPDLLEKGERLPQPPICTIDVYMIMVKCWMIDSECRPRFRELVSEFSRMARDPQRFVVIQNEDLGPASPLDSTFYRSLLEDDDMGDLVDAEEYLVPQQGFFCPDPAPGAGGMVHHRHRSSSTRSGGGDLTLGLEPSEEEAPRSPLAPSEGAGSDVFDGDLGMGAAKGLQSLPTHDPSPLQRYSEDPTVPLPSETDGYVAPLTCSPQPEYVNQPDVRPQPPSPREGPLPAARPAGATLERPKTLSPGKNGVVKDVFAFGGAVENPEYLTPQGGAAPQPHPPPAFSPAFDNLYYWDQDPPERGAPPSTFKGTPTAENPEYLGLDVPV

Mus musculus [14] = assay: Percent inhibition of TNF-alpha-induced IL-6 production at 50 mg/kg peroral dose in mice; type: functional; conditions: route oral
[15] = target: Epidermal growth factor receptor (Homo sapiens) (UniProt P00533); assay: Inhibition of Epidermal growth factor receptor at 10 uM
Mus musculus [16] = assay: Effect in murine model of arthritis onset in mice immunized with bovine type II collagen at 30 mg/kg; Number of paws affected; type: functional
[17] = target: Mitogen-activated protein kinase 8 (Homo sapiens) (UniProt P45983); assay: Inhibition of c-Jun N-terminal kinase 1 at 0.5 uM
Chain of Mitogen-activated protein kinase 8 (Homo sapiens) (P45983 whole entry): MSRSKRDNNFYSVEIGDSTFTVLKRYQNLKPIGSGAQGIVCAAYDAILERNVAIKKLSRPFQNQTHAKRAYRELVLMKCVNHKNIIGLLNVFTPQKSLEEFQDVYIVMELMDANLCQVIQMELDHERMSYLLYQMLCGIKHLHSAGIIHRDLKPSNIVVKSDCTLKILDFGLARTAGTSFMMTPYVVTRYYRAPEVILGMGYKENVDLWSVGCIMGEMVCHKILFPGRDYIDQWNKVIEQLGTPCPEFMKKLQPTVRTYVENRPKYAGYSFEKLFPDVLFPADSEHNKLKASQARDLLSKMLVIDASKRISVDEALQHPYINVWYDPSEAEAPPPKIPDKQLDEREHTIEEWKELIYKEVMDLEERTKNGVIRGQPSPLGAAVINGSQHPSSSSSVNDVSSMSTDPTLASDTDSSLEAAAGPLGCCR

[18] = target: cAMP-dependent protein kinase (PKA) (Homo sapiens) (UniProt P22694+P17612+P22612); assay: Inhibition of Protein kinase A at 10 uM; type: protein assay
Mus musculus [19] = assay: Effect in murine model of arthritis onset in mice immunized with bovine type II collagen at 30 mg/kg; Histopathology in interstitial edema; type: functional
[20] = target: Protein kinase C beta type (Homo sapiens) (UniProt P05771); assay: Inhibition of Protein kinase C beta at 10 uM
Chain of Protein kinase C beta type (Homo sapiens) (P05771 2-671 limits assumed): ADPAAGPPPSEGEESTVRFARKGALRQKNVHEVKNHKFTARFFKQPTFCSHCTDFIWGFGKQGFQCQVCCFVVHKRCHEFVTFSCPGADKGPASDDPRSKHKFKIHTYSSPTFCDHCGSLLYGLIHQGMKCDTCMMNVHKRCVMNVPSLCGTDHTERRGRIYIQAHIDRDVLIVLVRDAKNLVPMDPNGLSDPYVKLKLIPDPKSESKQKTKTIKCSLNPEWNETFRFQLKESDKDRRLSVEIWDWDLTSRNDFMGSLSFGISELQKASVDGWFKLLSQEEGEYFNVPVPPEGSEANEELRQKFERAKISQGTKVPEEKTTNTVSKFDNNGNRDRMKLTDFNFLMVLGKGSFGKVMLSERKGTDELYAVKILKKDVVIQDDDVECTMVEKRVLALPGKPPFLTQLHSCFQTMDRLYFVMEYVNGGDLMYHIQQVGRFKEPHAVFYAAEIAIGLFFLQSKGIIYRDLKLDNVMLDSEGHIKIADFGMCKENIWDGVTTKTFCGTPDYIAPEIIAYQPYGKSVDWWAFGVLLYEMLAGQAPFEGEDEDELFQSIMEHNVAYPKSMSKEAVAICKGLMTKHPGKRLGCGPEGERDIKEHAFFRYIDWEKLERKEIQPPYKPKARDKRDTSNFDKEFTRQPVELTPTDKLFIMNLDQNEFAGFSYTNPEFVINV

[21] = Solubility at pH 2.0; type: physicochemical; conditions: buffer
Mus musculus [22] = assay: Percent inhibition of TNF-alpha-induced IL-6 production at 25 mg/kg peroral dose in mice; type: functional; conditions: route oral
Mus musculus [23] = assay: Percentage inhibition of LPS-induced TNF-alpha production in mice at 20 mg/kg peroral dose; type: functional; conditions: route oral
[24] = target: Mitogen-activated protein kinase 3 (Homo sapiens) (UniProt P27361); assay: Inhibition of Mitogen-activated protein kinase 3 at 5 uM
Chain of Mitogen-activated protein kinase 3 (Homo sapiens) (P27361 whole entry): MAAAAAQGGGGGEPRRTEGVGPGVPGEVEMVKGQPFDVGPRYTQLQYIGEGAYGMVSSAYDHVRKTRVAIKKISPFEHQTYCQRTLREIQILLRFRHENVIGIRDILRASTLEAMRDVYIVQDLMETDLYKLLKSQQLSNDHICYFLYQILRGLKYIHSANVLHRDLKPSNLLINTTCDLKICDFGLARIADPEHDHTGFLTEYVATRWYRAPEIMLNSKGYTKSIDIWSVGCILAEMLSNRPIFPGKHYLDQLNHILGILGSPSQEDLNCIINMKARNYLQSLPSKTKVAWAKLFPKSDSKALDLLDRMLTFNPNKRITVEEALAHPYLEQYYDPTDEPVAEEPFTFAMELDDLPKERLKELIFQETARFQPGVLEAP

[25] = target: Protein kinase C gamma type (Homo sapiens) (UniProt P05129); assay: Inhibition of Protein kinase C gamma at 10 uM
Mus musculus [26] = assay: Effect in murine model of arthritis onset in mice immunized with bovine type II collagen at 10 mg/kg; Number of paws affected; type: functional
Mus musculus [27] = assay: Effect in murine model of arthritis onset in mice immunized with bovine type II collagen at 10 mg/kg; Histopathology in interstitial edema; type: functional
[28] = Solubility at pH 7.5; type: physicochemical; conditions: buffer
[29] = target: Tyrosine-protein kinase Lck (Homo sapiens) (UniProt P06239); assay: Inhibition of p59 Lck tyrosine kinase at 10 uM
Chain of Tyrosine-protein kinase Lck (Homo sapiens) (P06239 2-509 limits assumed): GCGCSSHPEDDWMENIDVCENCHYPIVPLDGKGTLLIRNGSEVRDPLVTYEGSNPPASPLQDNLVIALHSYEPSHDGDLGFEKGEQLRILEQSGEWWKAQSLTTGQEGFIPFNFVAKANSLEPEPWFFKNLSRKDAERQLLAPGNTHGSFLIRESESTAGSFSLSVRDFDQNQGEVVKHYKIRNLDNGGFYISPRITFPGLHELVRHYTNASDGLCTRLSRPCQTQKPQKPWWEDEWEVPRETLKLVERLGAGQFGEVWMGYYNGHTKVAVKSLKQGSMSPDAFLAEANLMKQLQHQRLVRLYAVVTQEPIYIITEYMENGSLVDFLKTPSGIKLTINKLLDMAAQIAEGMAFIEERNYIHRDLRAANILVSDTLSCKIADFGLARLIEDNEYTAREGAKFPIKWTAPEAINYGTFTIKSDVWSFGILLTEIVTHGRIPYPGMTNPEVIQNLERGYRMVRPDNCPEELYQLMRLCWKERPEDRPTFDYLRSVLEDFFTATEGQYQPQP

[30] = target: Protein kinase C alpha type (Homo sapiens) (UniProt P17252); assay: Inhibition of Protein kinase C alpha at 10 uM
Mus musculus [31] = assay: Effect in murine model of arthritis onset in mice immunized with bovine type II collagen at 3 mg/kg; Histopathology in interstitial edema; type: functional
[32] = target: Mitogen-activated protein kinase 14 (Homo sapiens, UniProt Q16539); assay: Inhibitory activity against Mitogen-activated protein kinase p38 alpha 2
Chain of Mitogen-activated protein kinase 14 (Q16539 whole entry): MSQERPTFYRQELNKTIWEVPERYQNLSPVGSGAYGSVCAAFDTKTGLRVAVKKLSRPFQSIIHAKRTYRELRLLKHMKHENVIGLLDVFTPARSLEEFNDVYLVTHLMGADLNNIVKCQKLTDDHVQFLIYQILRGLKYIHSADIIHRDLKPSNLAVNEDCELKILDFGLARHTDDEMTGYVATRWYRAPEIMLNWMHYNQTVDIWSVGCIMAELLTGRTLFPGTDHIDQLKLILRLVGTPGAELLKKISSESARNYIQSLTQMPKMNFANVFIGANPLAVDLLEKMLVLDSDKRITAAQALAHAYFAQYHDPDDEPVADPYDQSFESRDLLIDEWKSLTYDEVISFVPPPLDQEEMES

Mus musculus [33] = assay: Percent inhibition of TNF-alpha-induced IL-6 production at 100 mg/kg peroral dose in mice; type: functional; conditions: route oral
Mus musculus [34] = assay: Percent inhibition of TNF-alpha-induced IL-6 production at 10 mg/kg peroral dose in mice; type: functional; conditions: route oral
Mus musculus [35] = assay: Effect in murine model of arthritis onset in mice immunized with bovine type II collagen at 50 mg/kg; Number of paws affected; type: functional
Mus musculus [36] = assay: Effect in murine model of arthritis onset in mice immunized with bovine type II collagen at 50 mg/kg; Histopathology in inflammatory cell; type: functional
Mus musculus [37] = assay: Effect in murine model of arthritis onset in mice immunized with bovine type II collagen at 50 mg/kg; Histopathology in interstitial edema; type: functional
Mus musculus [38] = assay: Effect on LPS-induced TNF-alpha production in mice at 30 mg/kg peroral dose; type: functional; conditions: route oral
Mus musculus [39] = species: Mus musculus; assay: animal or person; conditions: po, read-out: Inhibition
Mus musculus [40] = species: Mus musculus; assay: animal or person; conditions: po, read-out: Inhibition; remark: listed apart in the source
Mus musculus [41] = species: Mus musculus; assay: animal or person; conditions: po, read-out: Inhibition; remark: listed apart in the source

Compound: Cn1nc(C(C)(C)C)cc1NC(=O)Nc1ccc(Cc2ccncc2)cc1
inhibition [1]: 3%
inhibition in vivo at 50 mg/kg (Mus musculus [2]): < 86.5%
Activity (Mus musculus [3]): 5.1 ng/mL
IC50 [4]: 110 nM
inhibition [5]: 20%
Activity (Mus musculus [6]): 0.38
Activity (Mus musculus [7]): 19.8 ng/mL
inhibition in vivo at 10 mg/kg (Mus musculus [8]): -24.5%
IC (Mus musculus [9]): 0.8
IC50 (SW1353): 323 nM
Activity (Mus musculus [10]): 46.7 ng/mL
Activity (Mus musculus [11]): 0.78
Activity (Mus musculus [12]): 1.4
IC50 [13]: 4.2 nM
inhibition in vivo at 50 mg/kg (Mus musculus [14]): 84%
inhibition [15]: 17%
Activity (Mus musculus [16]): 0.7
inhibition [17]: 2%
inhibition [18]: 7%
Activity (Mus musculus [19]): 0.2
inhibition [20]: 5%
solubility [21]: 2000 µg/mL (≈ 5500 µM)
inhibition in vivo at 25 mg/kg (Mus musculus [22]): 60%
inhibition in vivo at 20 mg/kg (Mus musculus [23]): < 47.1%
inhibition [24]: 8%
inhibition [25]: 21%
Activity (Mus musculus [26]): 1.9
Activity (Mus musculus [27]): 0.3
solubility [28]: 50 µg/mL (≈ 138 µM)
inhibition [29]: 8%
inhibition [30]: 0%
IO (Mus musculus [31]): 0.33

Compound: Cn1nc(C(C)(C)C)cc1NC(=O)Nc1ccc(CCc2ccncc2)cc1
IC50 [32]: 430 nM

Compound: Cc1ccc(Oc2ccc(NC(=O)Nc3cc(C(C)(C)C)nn3C)cc2)cc1
IC50 [32]: 160 nM

Compound: Cn1nc(C(C)(C)C)cc1NC(=O)Nc1ccc(Cc2ccc(NC(=O)CCC(=O)O)cc2)cc1
IC50 (SW1353): > 2500 nM
IC50 [32]: 200 nM

Compound: CC(C)OC(=O)Nc1ccc(Oc2ccc(NC(=O)Nc3cc(C(C)(C)C)nn3C)cc2)cc1
IC50 (SW1353): 162 nM
IC50 [32]: 54 nM

Compound: CCC(=O)Nc1ccc(Oc2ccc(NC(=O)Nc3cc(C(C)(C)C)nn3C)cc2)cc1
IC50 (SW1353): 1060 nM
IC50 [32]: 69 nM

Compound: CC(C)CC(=O)Nc1ccc(Oc2ccc(NC(=O)Nc3cc(C(C)(C)C)nn3C)cc2)cc1
IC50 (SW1353): 313 nM
IC50 [32]: 45 nM

Compound: Cn1nc(C(C)(C)C)cc1NC(=O)Nc1ccc(Oc2ccccc2)cc1
IC50 [32]: 270 nM

Compound: C[S+]([O-])c1ccc(-c2nc(-c3ccc(F)cc3)c(-c3ccncc3)[nH]2)cc1 (stereo not given) [SB-203580]
Activity (Mus musculus [35]): 1
IC (Mus musculus [36]): 0.63
IO (Mus musculus [37]): 0.25
Activity (Mus musculus [38]): 13 ng/mL
Activity (Mus musculus [10]): 38 ng/mL
inhibition in vivo at 100 mg/kg (Mus musculus [39]): 80%
inhibition in vivo at 10 mg/kg (Mus musculus [40]): -1.4%
inhibition in vivo at 30 mg/kg (Mus musculus [41]): < 65.4%

Compound: Cn1nc(C(C)(C)C)cc1NC(=O)Nc1ccc(Oc2ccc(OCc3ccccc3)cc2)cc1
IC50 [32]: 110 nM

Compound: CC(C)CC(=O)Nc1ccc(Cc2ccc(NC(=O)Nc3cc(C(C)(C)C)nn3C)cc2)cc1
IC50 (SW1353): 170 nM
IC50 [32]: 37 nM

Compound: Cn1nc(C(C)(C)C)cc1NC(=O)Nc1ccc(Oc2ccc(N)cc2)cc1
IC50 [32]: 310 nM

Compound: Cn1nc(C(C)(C)C)cc1NC(=O)Nc1ccc(Nc2ccncc2)cc1
IC50 [32]: 420 nM

Compound: Cn1nc(C(C)(C)C)cc1NC(=O)Nc1ccc(Oc2ccc(C(C)(C)C)cc2)cc1
IC50 [32]: 183 nM

Compound: CC(=O)Nc1ccc(Oc2ccc(NC(=O)Nc3cc(C(C)(C)C)nn3C)cc2)cc1
IC50 [32]: 235 nM

Compound: Cn1nc(C(C)(C)C)cc1NC(=O)Nc1ccc(Cc2ccc(N)cc2)cc1
IC50 [32]: 290 nM

Compound: Cn1nc(C(C)(C)C)cc1NC(=O)Nc1ccc(Cc2ccc(NC(=O)OC(C)(C)C)cc2)cc1
IC50 (SW1353): 57 nM
IC50 [32]: 87 nM

Continued by falling IC50 [32], values first:

IC50 [32]: 260 nM
Compound: Cn1nc(C(C)(C)C)cc1NC(=O)Nc1ccc(OCc2ccncc2)cc1

IC50 [32]: 140 nM
Compound: Cn1nc(C(C)(C)C)cc1NC(=O)Nc1ccc(SCc2ccncc2)cc1

IC50 [32]: 70 nM
Compound: CC(=O)Nc1ccc(Cc2ccc(NC(=O)Nc3cc(C(C)(C)C)nn3C)cc2)cc1

IC50 (SW1353): > 2500 nM
IC50 [32]: 69 nM
Compound: CCCCOc1ccc(Sc2ccc(NC(=O)Nc3cc(C(C)(C)C)nn3C)cc2)cc1

IC50 (SW1353): 235 nM
IC50 [32]: 57 nM
Compound: CCCOc1ccc(Sc2ccc(NC(=O)Nc3cc(C(C)(C)C)nn3C)cc2)cc1

IC50 (SW1353): 584 nM
IC50 [32]: 44 nM
solubility [21]: 5160 µg/mL (≈ 13000 µM)
solubility [28]: 322 µg/mL (≈ 814 µM)
Compound: Cn1nc(C(C)(C)C)cc1NC(=O)Nc1ccc(CSc2ccncc2)cc1
inhibition in vivo at 50 mg/kg (Mus musculus [14]): < 64%
inhibition in vivo at 25 mg/kg (Mus musculus [22]): 22%
inhibition in vivo at 10 mg/kg (Mus musculus [34]): -15%

IC50 (SW1353): 1750 nM
IC50 [32]: 38 nM
Compound: CCC(=O)Nc1ccc(Cc2ccc(NC(=O)Nc3cc(C(C)(C)C)nn3C)cc2)cc1

IC50 (SW1353): 1100 nM
IC50 [32]: 35 nM
Compound: Cn1nc(C(C)(C)C)cc1NC(=O)Nc1ccc(Sc2ccc(O)cc2)cc1

IC50 (SW1353): 87 nM
IC50 [32]: 33 nM
solubility [21]: 77 µg/mL (≈ 171 µM)
solubility [28]: 95 µg/mL (≈ 210 µM)
Compound: CCOC(=O)Nc1ccc(Oc2ccc(NC(=O)Nc3cc(C(C)(C)C)nn3C)cc2)cc1
inhibition in vivo at 50 mg/kg (Mus musculus [14]): 16%

IC50 (SW1353): 95 nM
IC50 [32]: 13 nM
solubility [21]: 1660 µg/mL (≈ 4350 µM)
solubility [28]: 655 µg/mL (≈ 1720 µM)
Compound: Cn1nc(C(C)(C)C)cc1NC(=O)Nc1ccc(Sc2ccncc2)cc1
inhibition in vivo at 100 mg/kg (Mus musculus [33]): < 90%
inhibition in vivo at 50 mg/kg (Mus musculus [14]): < 77%
